Results on twelve molecules are retold here after US8598173B2, “1-[(6,7-substituted alkoxyquinoxalinyl)aminocarbonyl]-4-(hetero)arylpiperazine derivatives for treating tumors” (Korea Research Institute of Chemical Technology, priority 2004, dated 2013).

Each structure is given as a SMILES string. Read-outs that look alike come from different tables or passages of the source. Where only a bound is given, the exact number is not on record here.

In assay [1] the test system is Caki-1 (kidney). The experiment in a line: Cell growth inhibition assay (SRB), Caki-1. The class given is cell-based. Conditions: Homo sapiens, SRB method, 96 hours incubation. As for the experimental part: (§1) OVCAR-3, MCF-7, PC3, HepG2, A549, HT-29 and MKN-45 were grown in RPMI1640 medium (Invitrogen, Carlsbad, Calif.) supplemented with 10% fetal bovine serum (‘FBS’), 1 mM sodium pyruvate, 10 mM HEPES and 100 U/ml penicillin and […] streptomycin (‘P/S’). MDA-MB-231, HCT116, UMRC2, Caki-1, PANC-1 and HEK293 cells were maintained in Dulbecco's modified Eagle's medium (‘DMEM’, Invitrogen) supplemented with 10% FBS, P/S, 10 mM HEPES and 2 mM L-glutamine. HUVEC was maintained in M199 supplemented with basic fibroblast growth factor (‘bFGF’) […] and FBS 20%. All cells were incubated at 37° C. under humidified 5% CO2.
(§2) The growth inhibition of the substituted quinoxalin-piperazine compounds against a variety of human tumor cells was evaluated. The relative importance of particular substituent groups on the compounds was also studied. The substituted piperazine derivative compounds, prepared as described above, were tested, along with DMSO as a control.
(§3) The growth inhibition assay of various compounds against human tumor cell lines was performed using the Sulforhodamine B (‘SRB’) method (Skehan et al., J. National Cancer Institute, 1990, 82, 1107-1112). […] Triplicate wells were used for each treatment. The cells were incubated with the various compounds for 96 hours at 37° C. in a humidified 5% CO2 atmosphere. After 96-hour incubation, cells were fixed with 10% trichloroacetic acid (‘TCA’), incubated for 1 hour at 4° C., and washed 3 times with tap water. Subsequently cells were stained with 0.4% sulforhodamine B in 1% acetic acid for 30 minutes, washed 4 times with 1% acetic acid, and air-dried again. After 5 minutes agitation in 10 mM Tris solution, the absorbance of each well was measured at 530 nm using Benchmark Plus Microplate reader (Bio-Rad Laboratories, Hercules, Calif.).
(§4) To translate the OD530 values into the number of live cells in each well, the OD530 values were compared to those on standard OD530-versus-cell number curves generated for each cell line. The percent survival was calculated using the formula: % Survival=live cell number[test]/live cell number[control]×100
(§5) The IC50 values were calculated by non-linear regression analysis.

Assay [2] relates to HCT116 (colon). The experiment in a line: Cell growth inhibition assay (SRB), HCT116. In kind it is cell-based. Conditions: Homo sapiens, HCT-116, SRB method, 96 hours incubation. As for the experimental part: as §1, §2, §3, §4, §5
Assay [3] deals with UMRC2 (kidney). The experiment in a line: Cell growth inhibition assay (SRB), UMRC2. In kind it is cell-based, human. Conditions: SRB method, 96 hours incubation. As for the experimental part:
as §1, §2, §3, §4, §5

Assay [4] concerns A549 (lung). The experiment in a line: Cell growth inhibition assay (SRB), A549. The class given is cell-based. Conditions: Homo sapiens, SRB method, 96 hours incubation. The protocol: as §1, §2, §3, §4, §5
The subject of assay [5] is HepG2 (liver). The experiment in a line: Cell growth inhibition assay (SRB), HepG2. The class given is cell-based. Conditions: Homo sapiens; HepG2; SRB method, 96 hours incubation; read-out: Inhibition of cell growth (IC50, μM) by quinoxaline-piperazine compounds against human cancer cell lines: HepG2. As for the experimental part:
as §1, §2, §3, §4, §5

Assay [6] has as its system MKN-45 (stomach). The experiment in a line: Cell growth inhibition assay (SRB), MKN-45. Conditions: Homo sapiens, MKN-45; MKN45; SRB method, 96 hours incubation; read-out: Inhibition of cell growth (IC50, μM) by quinoxaline-piperazine compounds against human cancer cell lines: MKN45. In kind it is cell-based. The protocol:
as §1, §2, §3, §4, §5

For assay [7], the system named is OVCAR-3 (ovary). The experiment in a line: Cell growth inhibition assay (SRB), OVCAR-3. The class given is cell-based. Conditions: Homo sapiens, SRB method, 96 hours incubation. As for the experimental part:
as §1, §2, §3, §4, §5

In assay [8] the test system is PANC-1 (pancreas). The experiment in a line: Cell growth inhibition assay (SRB), PANC-1. In kind it is cell-based, human. Conditions: SRB method, 96 hours incubation. As for the experimental part:
as §1, §2, §3, §4, §5

In assay [9] the test system is HT-29 (colon). The experiment in a line: Cell growth inhibition assay (SRB), HT-29. In kind it is cell-based. Conditions: Homo sapiens, HT-29; HT29; SRB method, 96 hours incubation; read-out: Inhibition of cell growth (IC50, μM) by quinoxaline-piperazine compounds against human cancer cell lines: HT29. The protocol:
as §1, §2, §3, §4, §5

For assay [10], the system named is MDA-MB-231 (breast). The experiment in a line: Cell growth inhibition assay (SRB), MDA-MB-231. In kind it is cell-based, human. Conditions: SRB method, 96 hours incubation. The protocol:
as §1, §2, §3, §4, §5

The test system of assay [11] is MCF-7 (breast, hormone-dependent). The experiment in a line: Cell growth inhibition assay (SRB), MCF-7. In kind it is cell-based. Conditions: Homo sapiens, MCF7, SRB method, 96 hours incubation. As for the experimental part:
as §1, §2, §3, §4, §5

Assay [12] has as its system PC3 (prostate). The experiment in a line: Cell growth inhibition assay (SRB), PC3. In kind it is cell-based. Conditions: Homo sapiens; PC-3; SRB method, 96 hours incubation; read-out: Inhibition of cell growth (IC50, μM) by quinoxaline-piperazine compounds against human cancer cell lines: PC-3. As for the experimental part:
as §1, §2, §3, §4, §5

The mark [13] stands for this setting: Caki-1, read-out: Inhibition of cell growth (IC50, μM) by quinoxaline-piperazine compounds against human cancer cell lines: Caki-1.
Setting [14] is: HCT116, read-out: Inhibition of cell growth (IC50, μM) by quinoxaline-piperazine compounds against human cancer cell lines: HCT116.
[15] abbreviates: Homo sapiens, UMRC2, read-out: Inhibition of cell growth (IC50, μM) by quinoxaline-piperazine compounds against human cancer cell lines: UMRC2.
The mark [16] stands for this setting: A549, read-out: Inhibition of cell growth (IC50, μM) by quinoxaline-piperazine compounds against human cancer cell lines: A549.
[17] abbreviates: OVCAR-3, OVCAR3, read-out: Inhibition of cell growth (IC50, μM) by quinoxaline-piperazine compounds against human cancer cell lines: OVCAR3.
Setting [18] is: Homo sapiens, PANC-1, read-out: Inhibition of cell growth (IC50, μM) by quinoxaline-piperazine compounds against human cancer cell lines: PANC-1.
[19] abbreviates: Homo sapiens, MDA-MB-231, read-out: Inhibition of cell growth (IC50, μM) by quinoxaline-piperazine compounds against human cancer cell lines: MDA-MB-231.
The mark [20] stands for this setting: read-out: Inhibition of cell growth (IC50, μM) by quinoxaline-piperazine compounds against human cancer cell lines: MCF7.
[21] abbreviates: Homo sapiens, UMRC2 (kidney), read-out: IC50, UMRC2.
[22] abbreviates: Homo sapiens, PANC-1 (pancreas), read-out: IC50, PANC-1.
The mark [23] stands for this setting: Homo sapiens, MDA-MB-231 (breast), read-out: IC50, MDA-MB-231.

Consider `COc1cc(OC)cc(N2CCN(C(=O)Nc3nc4cc(Cl)ccc4nc3OC)CC2)c1` [Compound 26, 1-[(6-Chloro-2-methoxyquinoxalin-3-yl)aminocarbonyl]-4-(3,5-dimethoxyphenyl)piperazine], for which the IC50 was determined as 0.053 µM in assay [1] (setting [13]); 0.068 µM in [2] (setting [14]); 0.065 µM in [3] (setting [15]); 0.073 µM in [4] (setting [16]); 0.063 µM in assay [5]; 0.064 µM in assay [6]. For the same molecule, the IC50 came to 0.042 µM in assay [7] (setting [17]); 0.098 µM in assay [8] (setting [18]); 0.079 µM in assay [9]; 0.05 µM in assay [10] (setting [19]); 0.076 µM in [11] (setting [20]); 0.076 µM in [12].

Turning to `COc1cc(OC)cc(N2CCN(C(=O)Nc3nc4cc(F)ccc4nc3OC)CC2)c1` [Compound 5, 1-[(6-Fluoro-2-methoxyquinoxalin-3-yl)aminocarbonyl]-4-(3,5-dimethoxyphenyl)piperazine], the concentration for half-maximal inhibition (IC50) in assay [1] (setting [13]) came to 0.011 µM; in assay [2] (setting [14]), 0.019 µM; in [3] (setting [15]), 0.013 µM; in assay [4] (setting [16]), 0.021 µM; in assay [5], 0.019 µM; in assay [6], 0.02 µM. The IC50 in assay [7] (setting [17]) turned out to be 0.012 µM; in assay [8] (setting [18]) it was 0.021 µM; in assay [9], 0.021 µM; in assay [10] (setting [19]) it was 0.012 µM; in [11] (setting [20]), 0.025 µM; in [12], 0.021 µM.

Turning to `COc1nc2cc(Cl)ccc2nc1NC(=O)N1CCN(c2cccc(Cl)c2)CC1` [Compound 120, 1-[(6-Chloro-3-methoxyquinoxalin-2-yl)aminocarbonyl]-4-(3-chlorophenyl)piperazine], the IC50 stood at 0.4 µM in [1] (Caki-1 (kidney), read-out: IC50, Caki-1); 0.48 µM in assay [2] (HCT116 (colon), read-out: IC50, HCT116); 0.17 µM in [3] (setting [21]); 0.75 µM in assay [4] (A549 (lung), read-out: IC50, A549); 0.36 µM in assay [7] (OVCAR-3 (ovary), read-out: IC50, OVCAR-3); 0.24 µM in assay [8] (setting [22]). Moreover, the IC50 is 0.17 µM in assay [10] (setting [23]) and 0.6 µM in [11] (MCF-7 (breast, hormone-dependent), read-out: IC50, MCF-7).

On to `COc1ccc2nc(NC(=O)N3CCN(c4cccc(C)c4)CC3)c(OC)nc2c1` [Compound 155, 1-[(3,6-Dimethoxyquinoxalin-2-yl)aminocarbonyl]-4-(3-methylphenyl)piperazine], for which the 50% inhibitory concentration (IC50) in assay [3] (setting [21]) turned out to be 0.39 µM; in assay [8] (setting [22]) it was 0.96 µM; in [10] (setting [23]), 0.23 µM.

For the molecule `COc1ccc2nc(NC(=O)N3CCN(c4ccccn4)CC3)c(OC)nc2c1` [Compound 167, 1-[(3,6-Dimethoxyquinoxalin-2-yl)aminocarbonyl]-4-(2-pyridyl)piperazine], the concentration for half-maximal inhibition (IC50) in [3] (setting [21]), in assay [8] (setting [22]) and in [10] (setting [23]) was over 1 µM each time.

Turning to `COc1nc2cc(Cl)ccc2nc1NC(=O)N1CCN(c2cccc(C(F)(F)F)c2)CC1` [Compound 116, 1-[(6-Chloro-3-methoxyquinoxalin-2-yl)aminocarbonyl]-4-(3-trifluorotolyl)piperazine], the IC50 is over 1 µM in [3] (UMRC2 (kidney), read-out: IC50, UMRC2); over 1 µM in [8] (PANC-1 (pancreas), read-out: IC50, PANC-1); over 1 µM in assay [10] (MDA-MB-231 (breast), read-out: IC50, MDA-MB-231).

In the case of `COc1nc2ccc(C)cc2nc1NC(=O)N1CCN(c2cccc(Cl)c2)CC1` [Compound 57, 1-[(2-Methoxy-6-methylquinoxalin-3-yl)aminocarbonyl]-4-(3-chlorophenyl)piperazine], the concentration for half-maximal inhibition (IC50) worked out at 0.24 µM in [3] (setting [15]), 0.64 µM in assay [8] (setting [18]) and 0.14 µM in assay [10] (setting [19]).

With `COc1cccc(N2CCN(C(=O)Nc3nc4ccc(OC)cc4nc3OC)CC2)c1` [Compound 150, 1-[(3,6-Dimethoxyquinoxalin-2-yl)aminocarbonyl]-4-(3-methoxyphenyl)piperazine], the IC50 in [3] (setting [21]) was over 1 µM; in assay [8] (setting [22]), over 1 µM; in [10] (setting [23]) it was at least 1 µM.

As to `COc1cc2nc(NC(=O)N3CCN(c4cc(C)cc(C)c4)CC3)c(OC)nc2cc1OC` [Compound 193, 1-[(2,6,7-Trimethoxyquinoxalin-3-yl)aminocarbonyl]-4-(3,5-dimethylphenyl)piperazine], the values for the IC50 in [3] (setting [21]), in [8] (setting [22]) and in assay [10] (setting [23]) were 0.47 µM, 0.69 µM and 0.65 µM, respectively.

`COc1ccc2nc(OC)c(NC(=O)N3CCN(c4cccc(Cl)c4)CC3)nc2c1` [Compound 78, 1-[(2,6-Dimethoxyquinoxalin-3-yl)aminocarbonyl]-4-(3-chlorophenyl)piperazine]: the IC50 in assay [3] (setting [15]), in [8] (setting [18]) and in [10] (setting [19]) was over 1 µM in each case.

As for `COc1nc2ccc(Cl)cc2nc1NC(=O)N1CCN(c2cccc(C)c2)CC1` [Compound 29, 1-[(6-Chloro-2-methoxyquinoxalin-3-yl)aminocarbonyl]-4-(3-methylphenyl)piperazine], the results for the 50% inhibitory concentration (IC50) in assay [3] (setting [15]), in [8] (setting [18]) and in assay [10] (setting [19]) were 0.3 µM, 0.95 µM and 0.16 µM, respectively.

`COc1cccc(N2CCN(C(=O)Nc3nc4ccc(Cl)cc4nc3OC)CC2)c1` [Compound 108, 1-[(6-Chloro-3-methoxyquinoxalin-2-yl)aminocarbonyl]-4-(3-methoxyphenyl)piperazine]: the IC50 in assay [3] (setting [21]), in assay [8] (setting [22]) and in assay [10] (setting [23]) was over 1 µM throughout.
